Laboratory results reported in PubChem BioAssay AID977614 (Broad Institute, 2014).
Calls of active or inactive are those of the source.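 Rule for the calls: active = parasite count per well reduced by over 3 SD from the mean, with host cell number above 80% of untreated; inactive = the rest.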

System: L. donovani amastigotes in THP-1 macrophages, DAPI imaging, 72 h
Assay: antileishmanial activity in infected macrophages – imaging, THP-1 host macrophages, single concentration (AID 977614);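 note: signal is the parasite per host cell ratio from DAPI stained kinetoplasts and nuclei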

Structure (SMILES) | AC50
CC(=O)NC[C@H]1[C@@H](c2ccc(C#Cc3ccccc3F)cc2)[C@@H](CO)N1C(C)=O | > 10 µM (inactive)
O=C(CC1CC1)N1[C@@H](CO)[C@@H]2c3ccccc3N(S(=O)(=O)c3ccccc3F)C[C@@H]21 | > 10 µM (inactive)
CC(=O)NC[C@@H]1[C@@H](c2ccc(C#Cc3ccccc3F)cc2)[C@@H](CO)N1C(C)=O | > 10 µM (inactive)
COc1ccc(CN2[C@@H](CO)[C@@H]3c4ccccc4N(C(=O)NC(C)C)C[C@@H]32)cc1 | > 10 µM (inactive)
COc1ccccc1S(=O)(=O)N(C)C[C@@H]1OCc2cn(nn2)CCCC(=O)N([C@H](C)CO)C[C@H]1C | > 10 µM (inactive)
Cc1noc(C)c1S(=O)(=O)N(C)C[C@H]1OCc2cnnn2CCCC(=O)N([C@H](C)CO)C[C@@H]1C | > 10 µM (inactive)
C[C@H]1CN([C@@H](C)CO)C(=O)CCCn2cc(nn2)CO[C@H]1CN(C)C(=O)CCC(F)(F)F | > 10 µM (inactive)
C[C@@H]1CN([C@@H](C)CO)C(=O)CCCn2nncc2CO[C@H]1CN(C)Cc1cccc(C(F)(F)F)c1 | > 10 µM (inactive)
CC(=O)N1[C@@H](CO)[C@H](c2ccccc2)[C@@H]1CN(C)S(=O)(=O)c1ccccc1 | > 10 µM (inactive)
C[C@@H]1CN([C@@H](C)CO)C(=O)CCCn2cc(nn2)CO[C@@H]1CN(C)C(=O)c1ccc(N2CCN(C)CC2)cc1 | > 10 µM (inactive)
CCN(C[C@@H]1[C@@H](c2ccccc2)[C@H](CO)N1C(C)=O)C(=O)NC1CCCC1 | > 10 µM (inactive)
CCN(C[C@@H]1N[C@@H](CO)[C@@H]1c1ccccc1)C(=O)c1ccncc1 | > 10 µM (inactive)
C[C@@H]1CN([C@@H](C)CO)C(=O)CCCn2cc(nn2)CO[C@H]1CN(C)C(=O)NC1CCCCC1 | > 10 µM (inactive)
O=C(C1CCCCC1)N1[C@@H](CO)[C@@H]2c3ccccc3N(S(=O)(=O)c3ccccc3)C[C@@H]21 | > 10 µM (inactive)
CCC(=O)NC[C@H]1[C@@H](c2ccc(-c3ccc(F)cc3)cc2)[C@@H](CO)N1C(=O)CC | > 10 µM (inactive)
C[C@H](CO)N1C[C@H](C)[C@@H](CN(C)S(=O)(=O)c2ccc(-n3cccn3)cc2)OCc2cn(nn2)CCCC1=O | > 10 µM (inactive)
C[C@@H]1CN([C@@H](C)CO)C(=O)CCCn2nncc2CO[C@H]1CN(C)S(=O)(=O)c1cn(C)cn1 | > 10 µM (inactive)
O=C(NC[C@H]1[C@H](c2ccccc2)[C@H](CO)N1Cc1ccccn1)C1CCCC1 | > 10 µM (inactive)
C[C@H](CO)N1C[C@H](C)[C@@H](CN(C)C(=O)CCC(F)(F)F)OCc2cnnn2CCCC1=O | > 10 µM (inactive)
O=S(=O)(c1ccccc1)N1C[C@@H]2[C@H](c3ccccc31)[C@H](CO)N2Cc1ccccn1 | > 10 µM (inactive)
C[C@@H]1CN([C@@H](C)CO)C(=O)CCCn2nncc2CO[C@@H]1CN(C)S(=O)(=O)c1ccc2c(c1)OCCCO2 | > 10 µM (inactive)
CCCC#Cc1ccc([C@H]2[C@@H](CO)N(C(C)=O)[C@H]2CN(C)C(=O)C2CC2)cc1 | > 10 µM (inactive)
COc1ccc(CN2[C@@H]3CN(C(=O)NC(C)C)c4ccccc4[C@@H]3[C@@H]2CO)cc1 | > 10 µM (inactive)
CCC(=O)N(CC(C)C)C[C@@H]1[C@@H](c2ccccc2)[C@H](CO)N1C(=O)C1CCC1 | > 10 µM (inactive)
C[C@@H]1CN([C@@H](C)CO)C(=O)CCCn2cc(nn2)CO[C@H]1CN(C)S(=O)(=O)c1cccc(C#N)c1 | > 10 µM (inactive)
C[C@@H]1CN([C@@H](C)CO)C(=O)CCCn2nncc2CO[C@H]1CN(C)C(=O)Nc1cccc(Oc2ccccn2)c1 | > 10 µM (inactive)
CCN(C[C@H]1[C@H](c2ccc(-c3cccnc3)cc2)[C@H](CO)N1C(C)=O)C(C)=O | > 10 µM (inactive)
C[C@H](CO)N1C[C@H](C)[C@@H](CN(C)C(=O)Nc2cccc3ccccc23)OCc2cn(nn2)CCCC1=O | > 10 µM (inactive)
C[C@@H]1CN([C@H](C)CO)C(=O)CCCn2nncc2CO[C@@H]1CN(C)Cc1ccc2c(c1)OCCN2C | > 10 µM (inactive)
